Measured values as given in the NIST ThermoML archive (doi:10.1016/j.jct.2009.11.018).
± gives the expanded uncertainty stated by the source.

Assay: xn = mol fraction of the nth substance listed
Settings: 298.15 K, 101 kPa, Liquid, Pycnometric method

| Structure (SMILES) | mass density (x1 = 0.0731) | mass density (x1 = 0.1555) | mass density (x1 = 0.2449) | mass density (x1 = 0.3384) | mass density (x1 = 0.4321) | mass density (x1 = 0.5223) | mass density (x1 = 0.0625) | mass density (x1 = 0.1347) | mass density (x1 = 0.2153) | mass density (x1 = 0.3019) | mass density (x1 = 0.3915) | mass density (x1 = 0.4804) | mass density (x1 = 0.5651) | mass density (x1 = 0.6428) | mass density (x1 = 0.7115) | mass density (x1 = 0.7703) | mass density (x1 = 0.8195) | mass density (x1 = 0.8595) | mass density (x1 = 0.8916) | mass density (x1 = 0.9244) | also measured |
| --- | --- | --- | --- | --- | --- | --- | --- | --- | --- | --- | --- | --- | --- | --- | --- | --- | --- | --- | --- | --- | --- |
| CC(O)CO (centres undefined) [1,2-propanediol] + O | 1016.4 ± 2.7 kg/m3 | 1031.1 ± 2.7 kg/m3 | 1037.7 ± 2.7 kg/m3 | 1039.6 ± 2.7 kg/m3 | 1039.8 ± 2.7 kg/m3 | 1039 ± 2.7 kg/m3 | – | – | – | – | – | – | – | – | – | – | – | – | – | – | mass density (x1 = 0.6058): 1038 ± 2.7 kg/m3; mass density (x1 = 0.6803): 1036.8 ± 2.7 kg/m3; mass density (x1 = 0.7446): 1035.9 ± 2.7 kg/m3; mass density (x1 = 0.7987): 1035 ± 2.7 kg/m3; mass density (x1 = 0.843): 1034.5 ± 2.7 kg/m3; mass density (x1 = 0.8786): 1033.8 ± 2.7 kg/m3; mass density (x1 = 0.9068): 1033.4 ± 2.7 kg/m3; mass density (x1 = 0.9355): 1033.1 ± 2.7 kg/m3 |
| CCC(O)CO (centres undefined) [1,2-butanediol] + O | – | – | – | – | – | – | 1009.5 ± 2.7 kg/m3 | 1015.8 ± 2.7 kg/m3 | 1016.4 ± 2.7 kg/m3 | 1014.2 ± 2.7 kg/m3 | 1011.6 ± 2.7 kg/m3 | 1009.2 ± 2.7 kg/m3 | 1006.9 ± 2.7 kg/m3 | 1005.2 ± 2.7 kg/m3 | 1003.6 ± 2.7 kg/m3 | 1002.4 ± 2.7 kg/m3 | 1001.4 ± 2.7 kg/m3 | 1000.7 ± 2.7 kg/m3 | 1000.2 ± 2.7 kg/m3 | 999.9 ± 2.7 kg/m3 | – |
| OCCCCO [1,4-butanediol] + O | – | – | – | – | – | – | 1006.6 ± 2.7 kg/m3 | 1015 ± 2.7 kg/m3 | 1019.9 ± 2.7 kg/m3 | 1021.6 ± 2.7 kg/m3 | 1021.7 ± 2.7 kg/m3 | 1021 ± 2.7 kg/m3 | 1020 ± 2.7 kg/m3 | 1018.8 ± 2.7 kg/m3 | 1017.5 ± 2.7 kg/m3 | 1016.6 ± 2.7 kg/m3 | 1015.7 ± 2.7 kg/m3 | 1015.1 ± 2.7 kg/m3 | 1014.7 ± 2.7 kg/m3 | 1014.1 ± 2.7 kg/m3 | – |
| CC(O)CCO (centres undefined) [1,3-butanediol] + O | – | – | – | – | – | – | 1008.2 ± 2.7 kg/m3 | 1015.9 ± 2.7 kg/m3 | 1019.2 ± 2.7 kg/m3 | 1018.8 ± 2.7 kg/m3 | 1016.8 ± 2.7 kg/m3 | 1014.4 ± 2.7 kg/m3 | 1012.2 ± 2.7 kg/m3 | 1009.9 ± 2.7 kg/m3 | 1007.9 ± 2.7 kg/m3 | 1006.2 ± 2.7 kg/m3 | 1004.8 ± 2.7 kg/m3 | 1003.8 ± 2.6 kg/m3 | 1003 ± 2.6 kg/m3 | 1002.2 ± 2.6 kg/m3 | – |
| OCCCO [propan-1,3-diol] + O | 1015.1 ± 2.7 kg/m3 | 1028.5 ± 2.7 kg/m3 | 1038.2 ± 2.8 kg/m3 | 1044.4 ± 2.8 kg/m3 | 1047.9 ± 2.8 kg/m3 | 1049.6 ± 2.8 kg/m3 | – | – | – | – | – | – | – | – | – | – | – | – | – | – | mass density (x1 = 0.6058): 1050.3 ± 2.8 kg/m3; mass density (x1 = 0.6803): 1050.4 ± 2.8 kg/m3; mass density (x1 = 0.7446): 1050.5 ± 2.8 kg/m3; mass density (x1 = 0.7987): 1050.5 ± 2.8 kg/m3; mass density (x1 = 0.843): 1050.4 ± 2.8 kg/m3; mass density (x1 = 0.8786): 1050.4 ± 2.8 kg/m3; mass density (x1 = 0.9068): 1050.2 ± 2.8 kg/m3; mass density (x1 = 0.9355): 1049.9 ± 2.8 kg/m3 |
| CC(O)C(C)O (centres undefined) [2,3-butanediol] + O | – | – | – | – | – | – | – | – | – | – | – | – | – | – | – | – | – | – | – | – | mass density (x1 = 0.0618): 1014.1 ± 2.7 kg/m3; mass density (x1 = 0.1379): 1021.5 ± 2.7 kg/m3; mass density (x1 = 0.1796): 1023.1 ± 2.7 kg/m3; mass density (x1 = 0.2179): 1023.2 ± 2.7 kg/m3; mass density (x1 = 0.2417): 1022.7 ± 2.7 kg/m3; mass density (x1 = 0.2696): 1022 ± 2.7 kg/m3; mass density (x1 = 0.3027): 1021 ± 2.7 kg/m3; mass density (x1 = 0.3426): 1019.5 ± 2.7 kg/m3; mass density (x1 = 0.3913): 1017.6 ± 2.7 kg/m3; mass density (x1 = 0.4524): 1015.2 ± 2.7 kg/m3; mass density (x1 = 0.5308): 1012.2 ± 2.7 kg/m3; mass density (x1 = 0.6352): 1008.4 ± 2.7 kg/m3; mass density (x1 = 0.7805): 1004.1 ± 2.7 kg/m3; mass density (x1 = 0.9001): 1000.9 ± 2.7 kg/m3 |
